Experimental findings from patent publication US9504702B2, “Methods of inhibition of protein fucosylation in vivo using fucose analogs” (Seattle Genetics, Inc., priority 2010, dated 2016) are described below.

The test system of series [1] is P-selectin ligand on Ramos cells. The series can be described thus: Cell surface P-selectin ligand by FACS, P-selectin fusion protein, Ramos. Format: cell-based, human. The protocol:
100 μM of each inhibitor was used under standard culture conditions for approximately 1-2 weeks with regular changes of culture medium including fresh inhibitor. After the incubation period, the cells were analyzed by FACS using four different detection reagents: biotinylated-Lens culimaris agglutinin-A (LCA), anti-Lewis' antibody (anti-SSEA1), an anti-Lewis^y antibody (cBR96), and a Recombinant Human P-Selectin/CD62P/Fc Fusion protein. The procedure involved washing of the cells with FACS buffer (PBS+10% bovine serum albumin+0.02% sodium azide) 3 times followed by incubation with the primary detection reagent for 1 hr at 4° C., followed by 3 washes with FACS buffer and then incubation with the secondary detection reagent for 1 hr at 4° C. The cells were finally washed with FACS buffer 3 times and resuspended in FACS buffer and examined using a BD FACScan instrument. […] The P-selectin fusion protein detects P-selectin ligand present on the surface of cells, an interaction which involves the sialyl Lewis' epitope present of the P-selectin ligand.
In general terms: A flow cytometer gives signals particle by particle.

The test system of series [2] is LP-1, a human multiple myeloma cell line (IgG fucosylation). Nature of the series: Fucosylation of LP-1-generated IgG, AOL dot blot. In kind it is cell-based. Conditions: Homo sapiens, LP-1, 120 h, 5 days, LP-1 cells, AOL dot blot, multiple samples separated by semicolon, read-out: % of control fucosylated IgG value. The method, then: To further evaluate the activities of different fucose analogs, 48 different fucose analogs and other four glycosylation inhibitors were tested for their ability to affect the fucosylation the LP-1-generated IgG. LP-1 cells (250,000 cells/mL, 3 mL per compound in 6-well plates) were incubated with 100 μM of each fucose analog for 5 days at 37° C. with a humidified atmosphere of 5% CO2 in IgG-depleted tissue culture media (90% RPMI with 10% IgG-depleted heat inactivated FBS). The IgG was isolated as described above using only 0.5 mL of MabSelect™ protein A resin slurry and one spin cup per sample with elution in 400 μL of IgG elution buffer into 25 μL of 9 M Tris buffer, pH 9. The eluates were concentrated to 10-20 μL per sample and 2 μL of each of the concentrated eluates were dotted onto a nitrocellulose membrane and stained with Ponceau S to estimate and adjust the sample loading for AOL staining. From this estimation of total protein in each sample, approximately 0.5 μg of each sample was dotted onto the membrane, air-dried, and stained with Ponceau S. An image of this stained membrane was captured using an Alpha Innotech FlourChem® Q system. The membrane was then blocked with 5% Bovine Serum Albumin (BSA) in Tris Buffered Saline (TBS) for 1 hr, washed with TBST (TBS with […]) 3 times and then incubated with 5 μg/ml biotinylated-AOL for 1 hr. The membrane was washed again with TBST 3 times, followed by Streptavidin-HRP incubation for 30 min and final washes with TBST 3 times.

In series [3] the test system is antibody core fucosylation (CHO DG44 cell line producing humanized IgG1 anti-CD70 antibody h1F6). The series can be described thus: Inhibition of antibody core fucosylation in CHO DG44 cell culture producing h1F6. Format: cell-based. Conditions: 120 h; 50 μM fucose analog, day 5, CHO DG44 h1F6; read-out: Inhibition at 50 μM. The method, then:
Fucose analogs have been evaluated for their effect on antibody core fucosylation at concentrations of 50 μM and 1 mM generally as described in Published US Patent Application 2009-0317869. Briefly, the protocol was as follows: A CHO DG44 cell line producing a humanized IgG1 anti-CD70 monoclonal antibody, h1F6 (see International Patent Publication WO 06/113909) was cultured at 7.5×10^5 cells per mL in 2 mLs of CHO culture media at 37°, 5% CO2 and shaking at 100 RPM in a 6 well tissue culture plate. Media was supplemented with insulin like growth factor (IGF), penicillin, streptomycin and either 1 mM or 50 μM of the fucose analog. On day 5 post inoculation, the culture was centrifuged at 13000 RPM for 5 minutes to pellet the cells; antibodies were then purified from supernatant.
Antibody purification was performed by applying the conditioned media to protein A resin pre-equilibrated with 1× phosphate buffered saline (PBS), pH 7.4. After washing resin with 20 resin bed volumes of 1×PBS, antibodies were eluted with 5 resin bed volumes of Immunopure IgG elution buffer (Pierce Biotechnology, Rockford, Ill.). A 10% volume of 1M Tris pH 8.0 was added to neutralize the eluted fraction.

For series [4], the system named is antibody core fucosylation (antibodies that did not bind to KLH, recovered from protein A column). The series can be described thus: In vivo antibody fucosylation after ip dosing (Example 1, Study 1), AOL lectin dot blot. Conditions: 150 mg/kg ip daily for 7 days. The method, then: Female BALB/c mice were immunized with Keyhole Limpet Hemocyanin (KLH) 30-60 days prior to starting this study. For the first study, mice were dosed ip with 150 mg/kg of alkynyl fucose (SGD-1887), alkynyl fucose peracetate (SGD-1890), 2-fluorofucose (SGD-2083), or 2-fluorofucose triacetate (SGD-2084) daily for 7 days or were untreated. On day 2, mice were also boosted with KLH. On the day after the last ip dose, mice were terminally bled and serum obtained. For the second study, mice were given 100 mM of 2-fluorofucose (SGD-2083) in their drinking water or given untreated water for 7 days, boosted with KLH, and continued with 100 mM 2-fluorofucose containing drinking water or untreated water for 7 more days before being terminally bled. Serum was then obtained. No mice died in either study. For both studies, serum was passed over a commercial anti-KLH affinity column to obtain KLH-specific polyclonal antibodies. The flow through from the anti-KLH affinity column was passed over a commercial protein A column to obtain the remaining antibodies.
Dot blots: 0.5 μg each of antibodies from untreated and treated animals, as well as standards of antibody cAC10 having known amounts of core fucosylation (0 to 100% fucose), were blotted onto a nitrocellulose membrane. The proteins levels were visualized by Ponceau staining. The blot was probed with biotinylated Aspergillus oryzae L-fucose-specific lectin (AOL) (which binds to fucosylated antibodies) and developed with streptavidin HRP and ECL. Gel loading (visible) and fucose signals (bioluminescence) were measured with an Alpha Innotech camera and quantitated with the machine software.

For `C#CC(O)[C@@H](O)[C@@H](O)[C@H](O)C=O` (some centres unmarked) [SGD-1887, 5-ethynylarabinose], the “signal for P-selectin ligand (increase upon treatment)” value in series [1] is given as “not observed”. Besides, in series [2], the activity at 100 µM came out at 3%. In addition, the Inhibition at 50 μM in series [3] is above 80%. Moreover, the mortality result in series [4] was “No mice died”. In series [4] (non-KLH antibodies from protein A column, dot blot, on average), the “fucosylation levels of the antibodies reduced, as compared to the untreated controls” value was “about one third”.

One may read the Inhibition as the share of the control response that was lost under treatment.
